Patent US9598416B2, “Substituted benzothienyl-pyrrolotriazines and uses thereof in the treatment cancer” (Bayer Intellectual Property GmbH, priority 2011, dated 2017)
Counter-ions that a name gives are not always drawn. Like-named read-outs stand apart in the source and are kept apart here.

Legend:
human FGFR-3 = human FGFR-3 (Homo sapiens (Human), UniProt P22607); test: FGFR-3 kinase assay (TR-FRET); assay type: biochemical; details: 10 μM ATP; compounds of the invention
human mTOR = human mTOR (Homo sapiens (Human), UniProt P42345); test: mTOR kinase assay (TR-FRET, for comparative purposes); assay type: biochemical; details: for inhibition at 1 µM: read-out: mTOR % inhibition @ 1 μM
From the text: mTOR inhibitory activity of the compounds of the present invention was quantified employing the TR-FRET based mTOR assay as described in the following paragraphs: Recombinant fusion tagged mTOR protein [glutathione-S-transferase (GST) fused to human mTOR amino acids from 1360 to 2549], expressed in insect cells and purified by glutathione-sepharose affinity chromatography, was purchased from Invitrogen (Cat.-No. 4753) and used as enzyme. As substrate for the kinase reaction, a recombinant fusion protein of GFP and 4E-BP1 (purchased from Invitrogen, Cat.-No. PV4759) was used. Test compounds were dissolved in DMSO to generate 10 mM stock solutions. […] The resulting mixture was incubated for 1 h at 22° C. to allow formation of the complex between the phosphorylated substrate and the Tb-chelate labelled antibody. Subsequently, the amount of phosphorylated substrate was evaluated by measurement of the resonance energy transfer from the Tb-chelate to the GFP. For this, the fluorescence emissions at 495 nm and 520 nm after excitation at 340 nm was measured in an Envision 2104 multilabel reader (Perkin-Elmer). The ratio of the emissions at 520 nm and at 495 nm was taken as the measure for the amount of phosphorylated substrate.

[1] = 1 μM test compound, mean inhibition values

Sequence of human FGFR-3 (P22607 397-806): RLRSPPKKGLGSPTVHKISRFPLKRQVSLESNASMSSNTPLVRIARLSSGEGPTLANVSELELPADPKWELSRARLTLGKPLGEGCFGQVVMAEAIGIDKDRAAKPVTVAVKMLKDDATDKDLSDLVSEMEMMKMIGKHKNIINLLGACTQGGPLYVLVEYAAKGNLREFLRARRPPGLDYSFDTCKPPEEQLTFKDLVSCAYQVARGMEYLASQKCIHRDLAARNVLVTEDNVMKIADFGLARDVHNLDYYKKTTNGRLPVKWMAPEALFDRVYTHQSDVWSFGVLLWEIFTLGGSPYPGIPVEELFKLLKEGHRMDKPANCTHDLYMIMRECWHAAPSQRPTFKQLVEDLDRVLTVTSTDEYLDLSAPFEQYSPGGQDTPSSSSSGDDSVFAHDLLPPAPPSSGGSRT
Sequence of human mTOR (P42345 1360-2549): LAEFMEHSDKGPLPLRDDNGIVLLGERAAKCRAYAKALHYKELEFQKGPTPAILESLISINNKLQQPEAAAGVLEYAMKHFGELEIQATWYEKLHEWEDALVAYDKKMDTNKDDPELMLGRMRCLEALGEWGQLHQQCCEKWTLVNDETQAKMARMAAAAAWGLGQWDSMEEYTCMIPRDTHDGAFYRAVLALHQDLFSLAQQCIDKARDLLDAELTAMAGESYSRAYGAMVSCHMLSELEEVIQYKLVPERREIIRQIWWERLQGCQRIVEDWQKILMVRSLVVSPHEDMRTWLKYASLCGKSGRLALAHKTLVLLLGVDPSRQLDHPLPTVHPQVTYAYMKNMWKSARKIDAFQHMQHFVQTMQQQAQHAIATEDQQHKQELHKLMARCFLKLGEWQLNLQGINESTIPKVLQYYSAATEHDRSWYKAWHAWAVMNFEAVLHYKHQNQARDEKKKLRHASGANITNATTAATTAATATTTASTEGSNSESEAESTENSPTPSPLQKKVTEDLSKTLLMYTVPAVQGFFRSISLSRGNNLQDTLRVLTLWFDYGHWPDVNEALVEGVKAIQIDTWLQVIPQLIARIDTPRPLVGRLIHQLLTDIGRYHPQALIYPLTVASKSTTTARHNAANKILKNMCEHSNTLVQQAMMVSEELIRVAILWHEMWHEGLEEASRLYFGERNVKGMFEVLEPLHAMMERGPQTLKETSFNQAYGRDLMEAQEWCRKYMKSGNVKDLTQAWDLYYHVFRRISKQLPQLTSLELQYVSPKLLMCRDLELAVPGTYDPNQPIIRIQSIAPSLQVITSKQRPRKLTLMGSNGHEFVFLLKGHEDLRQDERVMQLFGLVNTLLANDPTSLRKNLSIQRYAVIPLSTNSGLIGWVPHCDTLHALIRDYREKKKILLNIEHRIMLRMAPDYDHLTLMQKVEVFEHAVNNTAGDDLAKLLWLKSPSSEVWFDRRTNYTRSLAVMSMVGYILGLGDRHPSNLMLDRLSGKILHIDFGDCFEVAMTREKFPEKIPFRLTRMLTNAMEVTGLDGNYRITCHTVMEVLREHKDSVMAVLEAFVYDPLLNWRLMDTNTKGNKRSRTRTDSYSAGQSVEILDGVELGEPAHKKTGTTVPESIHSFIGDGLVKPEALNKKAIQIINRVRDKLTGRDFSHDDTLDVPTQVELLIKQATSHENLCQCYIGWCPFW

IC50 (human FGFR-3) | inhibition at 1 µM (human mTOR; [1]) | SMILES | mTOR % inhibition @ 1 μM (human mTOR; [1]) | inhibition at 1 µM (human mTOR)
27.9 nM | – | COc1cc(C)cc2cc(-c3c(CN4CCN(C(C)=O)CC4)cn4ncnc(N)c34)sc12 [Example 21, 1-(4-{[4-Amino-5-(7-methoxy-5-methyl-1-benzothiophen-2-yl)pyrrolo[2,1-f][1,2,4]triazin-6-yl]-methyl}piperazin-1-yl)ethanone] | no inhib. effect detect. | –
0.4 nM | – | COc1cc(C)cc2cc(-c3c(CN4CCNC(=O)C4)cn4ncnc(N)c34)sc12 [Example 11, 4-{[4-Amino-5-(7-methoxy-5-methyl-1-benzothiophen-2-yl)pyrrolo[2,1-f][1,2,4]triazin-6-yl]-methyl}piperazin-2-one] | no inhib. effect detect. | –
2.3 nM | 8.8% | COc1cc(C)cc2cc(-c3c(CNCC(N)=O)cn4ncnc(N)c34)sc12 [Example 16, N^2-{[4-Amino-5-(7-methoxy-5-methyl-1-benzothiophen-2-yl)pyrrolo[2,1-f][1,2,4]triazin-6-yl]-methyl}glycinamide] | – | –
3.1 nM | 1.6% | COc1cccc2cc(-c3c(CN4CCNC(=O)C4)cn4ncnc(N)c34)sc12 [Example 30, 4-{[4-Amino-5-(7-methoxy-1-benzothiophen-2-yl)pyrrolo[2,1-f][1,2,4]triazin-6-yl]methyl}piperazin-2-one] | – | –
4.2 nM | 2.5% | COc1cc(C)cc2cc(-c3c(CO[C@@H](C)CO)cn4ncnc(N)c34)sc12 [Example 3, (2S)-2-{[4-Amino-5-(7-methoxy-5-methyl-1-benzothiophen-2-yl)pyrrolo[2,1-f][1,2,4]triazin-6-yl]-methoxy}propan-1-ol] | – | –
17.4 nM | 2% | COc1cc(C)cc2cc(-c3c(CN4CCOCC4)cn4ncnc(N)c34)sc12 [Example 23, 5-(7-Methoxy-5-methyl-1-benzothiophen-2-yl)-6-(morpholin-4-ylmethyl)pyrrolo[2,1-f][1,2,4]triazin-4-amine] | – | –
11.6 nM | 7.2% | COc1cc(C)cc2cc(-c3c(CNC(C)C(N)=O)cn4ncnc(N)c34)sc12 (racemic) [Example 12, rac-N^2-{[4-Amino-5-(7-methoxy-5-methyl-1-benzothiophen-2-yl)pyrrolo[2,1-f][1,2,4]triazin-6-yl]-methyl}alaninamide] | – | –
14.2 nM | 35.5% | CCOCc1cn2ncnc(N)c2c1-c1cc2cc(C)cc(OC)c2s1 [Example 28, 6-(Ethoxymethyl)-5-(7-methoxy-5-methyl-1-benzothiophen-2-yl)pyrrolo[2,1-f][1,2,4]triazin-4-amine] | – | –
15.1 nM | 5.3% | CNC(=O)CNCc1cn2ncnc(N)c2c1-c1cc2cc(C)cc(OC)c2s1 [Example 13, N^2-{[4-Amino-5-(7-methoxy-5-methyl-1-benzothiophen-2-yl)pyrrolo[2,1-f][1,2,4]triazin-6-yl]-methyl}-N-methylglycinamide] | – | –
2.2 nM | 6.1% | COc1cc(C)cc2cc(-c3c(COC[C@H](C)O)cn4ncnc(N)c34)sc12 [Example 2, (2S)-1-{[4-Amino-5-(7-methoxy-5-methyl-1-benzothiophen-2-yl)pyrrolo[2,1-f][1,2,4]triazin-6-yl]-methoxy}propan-2-ol] | – | –
0.3 nM | 9.1% | COc1cc(Cl)cc2cc(-c3c(CN4CCNC(=O)C4)cn4ncnc(N)c34)sc12 [Example 31, 4-{[4-Amino-5-(5-chloro-7-methoxy-1-benzothiophen-2-yl)pyrrolo[2,1-f][1,2,4]triazin-6-yl]methyl}-piperazin-2-one] | – | –
49.9 nM | 8.4% | CCOC(=O)COCc1cn2ncnc(N)c2c1-c1cc2cc(C)cc(OC)c2s1 [Example 4, Ethyl {[4-amino-5-(7-methoxy-5-methyl-1-benzothiophen-2-yl)pyrrolo[2,1-f][1,2,4]triazin-6-yl]-methoxy}acetate] | – | –
0.8 nM | 0.3% | COc1cc(C)cc2cc(-c3c(CN(C)CC(N)=O)cn4ncnc(N)c34)sc12 [Example 14, N^2-{[4-Amino-5-(7-methoxy-5-methyl-1-benzothiophen-2-yl)pyrrolo[2,1-f][1,2,4]triazin-6-yl]-methyl}-N^2-methylglycinamide] | – | –

SMILES | IC50 (human FGFR-3) | inhibition at 1 µM (human mTOR; [1]) | mTOR % inhibition @ 1 μM (human mTOR; [1]) | inhibition at 1 µM (human mTOR)
COc1cc(C)cc2cc(-c3c(CN[C@H]4CCNC4=O)cn4ncnc(N)c34)sc12 [Example 27, (3S)-3-({[4-Amino-5-(7-methoxy-5-methyl-1-benzothiophen-2-yl)pyrrolo[2,1-f][1,2,4]triazin-6-yl]-methyl}amino)pyrrolidin-2-one dihydrochloride] | 0.5 nM | – | – | 5%
COc1cc(C)cc2cc(-c3c(CNCC(C)(C)O)cn4ncnc(N)c34)sc12 [Example 17, 1-({[4-Amino-5-(7-methoxy-5-methyl-1-benzothiophen-2-yl)pyrrolo[2,1-f][1,2,4]triazin-6-yl]-methyl}amino)-2-methylpropan-2-ol dihydrochloride] | 1.8 nM | – | no inhib. effect detect. | –
CCOC(=O)CNCc1cn2ncnc(N)c2c1-c1cc2cc(C)cc(OC)c2s1 [Example 15, Ethyl N-{[4-amino-5-(7-methoxy-5-methyl-1-benzothiophen-2-yl)pyrrolo[2,1-f][1,2,4]triazin-6-yl]-methyl}glycinate dihydrochloride] | 87.1 nM | – | – | 4%
COc1cc(C)cc2cc(-c3c(CNCCNC(C)=O)cn4ncnc(N)c34)sc12 [Example 24, N-[2-({[4-Amino-5-(7-methoxy-5-methyl-1-benzothiophen-2-yl)pyrrolo[2,1-f][1,2,4]triazin-6-yl]-methyl}amino)ethyl]acetamide trifluoroacetate] | 8.7 nM | – | – | 0.3%
COc1cc(C)cc2cc(-c3c(COCCCO)cn4ncnc(N)c34)sc12 [Example 1, 3-{[4-Amino-5-(7-methoxy-5-methyl-1-benzothiophen-2-yl)pyrrolo[2,1-f][1,2,4]triazin-6-yl]-methoxy}propan-1-ol hydrochloride] | 18.2 nM | – | – | 1.9%
COc1cc(C)cc2cc(-c3c(CN4CCC(O)C4)cn4ncnc(N)c34)sc12 (racemic) [Example 18, rac-1-{[4-Amino-5-(7-methoxy-5-methyl-1-benzothiophen-2-yl)pyrrolo[2,1-f][1,2,4]triazin-6-yl]-methyl}pyrrolidin-3-ol dihydrochloride] | 1.3 nM | – | no inhib. effect detect. | –
COc1cc(C)cc2cc(-c3c(CN4CCN(C(=O)OC(C)(C)C)CC4)cn4ncnc(N)c34)sc12 [Example 22, tert-Butyl 4-{[4-amino-5-(7-methoxy-5-methyl-1-benzothiophen-2-yl)pyrrolo[2,1-f][1,2,4]triazin-6-yl]methyl}piperazine-1-carboxylate trifluoroacetate] | 10.8 nM | – | – | 1.6%
COc1cc(C)cc2cc(-c3c(CNCCCO)cn4ncnc(N)c34)sc12 [Example 20, 3-({[4-Amino-5-(7-methoxy-5-methyl-1-benzothiophen-2-yl)pyrrolo[2,1-f][1,2,4]triazin-6-yl]-methyl}amino)propan-1-ol dihydrochloride] | 15.2 nM | – | no inhib. effect detect. | –
COc1cc(C)cc2cc(-c3c(CN4CCNCC4)cn4ncnc(N)c34)sc12 [Example 25, 5-(7-Methoxy-5-methyl-1-benzothiophen-2-yl)-6-(piperazin-1-ylmethyl)pyrrolo[2,1-f][1,2,4]triazin-4-amine trihydrochloride] | 0.4 nM | – | no inhib. effect detect. | –
COc1cc(C)cc2cc(-c3c(COCCO)cn4ncnc(N)c34)sc12 [Example 7, 2-{[4-Amino-5-(7-methoxy-5-methyl-1-benzothiophen-2-yl)pyrrolo[2,1-f][1,2,4]triazin-6-yl]-methoxy}ethanol hydrochloride] | 5.8 nM | – | – | 4.7%
COc1cc(C)cc2cc(-c3c(CN4CCCC4C(N)=O)cn4ncnc(N)c34)sc12 (racemic) [Example 19, rac-1-{[4-Amino-5-(7-methoxy-5-methyl-1-benzothiophen-2-yl)pyrrolo[2,1-f][1,2,4]triazin-6-yl]-methyl}prolinamide dihydrochloride] | 11.2 nM | – | – | 1.8%
